Test results taken from ChEMBL document CHEMBL3885861, “Open TG-GATES”.

Organism: Rattus norvegicus
Assay: Open TG-GATES - Regimen: Daily Repeat
Format: toxicity, organism-based, Sprague-Dawley
Parameters: regimen Daily Repeat, gender Male, age 6 weeks
Conditions: in vivo, po, 0 mg/kg, route gavage, dose level Control; for APTT / Bas / Eos / Fbg / Hb / Ht / Lym / MCH / MCHC / MCV / Mono / Neu / PT / Plat / RBC / Ret / WBC: tissue Blood; for KIDNEY_L / KIDNEY_R / KIDNEY_TOTAL: tissue Kidney; for LIVER: tissue Liver; for A/G / ALP / ALT / AST / BUN / CRE / Ca / Cl / DBIL / GLC / IP / K / LDH / Na / PL / RALB / TBIL / TC / TG / TP / gamma-GTP: tissue Plasma

CN(C/C=C/C#CC(C)(C)C)Cc1cccc2ccccc12 [TERBINAFINE]
TERMINAL_BW (72 h, time 3 day): 243.5 g
APTT (72 h, time 3 day): 18.4 s
Bas (72 h, time 3 day): 0.8%
Eos (72 h, time 3 day): 1%
Fbg (72 h, time 3 day): 227.8 mg/dL
Hb (72 h, time 3 day): 13.5 g/dL
Ht (72 h, time 3 day): 39.9%
Lym (72 h, time 3 day): 76%
MCH (72 h, time 3 day): 21.5 pg
MCHC (72 h, time 3 day): 33.8%
MCV (72 h, time 3 day): 63.4 fL
Mono (72 h, time 3 day): 3%
Neu (72 h, time 3 day): 19.2%
PT (72 h, time 3 day): 11.8 s
Plat (72 h, time 3 day): 117.2 x10_4/uL
RBC (72 h, time 3 day): 629 x10_4/ul
Ret (72 h, time 3 day): 5.9%
WBC (72 h, time 3 day): 104.3 x10_2/uL
KIDNEY_L (72 h, time 3 day): 1.1 g
KIDNEY_R (72 h, time 3 day): 1.1 g
KIDNEY_TOTAL (72 h, time 3 day): 2.2 g
LIVER (72 h, time 3 day): 11.8 g
A/G (72 h, time 3 day): 1.6
ALP (72 h, time 3 day): 804.6 IU/L
ALT (72 h, time 3 day): 34.2 IU/L
AST (72 h, time 3 day): 66.8 IU/L
BUN (72 h, time 3 day): 14.4 mg/dL
CRE (72 h, time 3 day): 0.4 mg/dL
Ca (72 h, time 3 day): 10.8 mg/dL
Cl (72 h, time 3 day): 103.4 meq/L
DBIL (72 h, time 3 day): 0.098 mg/dL
GLC (72 h, time 3 day): 192.8 mg/dL
IP (72 h, time 3 day): 7.3 mg/dL
K (72 h, time 3 day): 4.2 meq/L
LDH (72 h, time 3 day): 191.8 IU/L
Na (72 h, time 3 day): 141.6 meq/L
PL (72 h, time 3 day): 147.6 mg/dL
RALB (72 h, time 3 day): 3.5 g/dL
TBIL (72 h, time 3 day): 0.2 mg/dL
TC (72 h, time 3 day): 74.6 mg/dL
TG (72 h, time 3 day): 99.2 mg/dL
TP (72 h, time 3 day): 5.6 g/dL
gamma-GTP (72 h, time 3 day): 2 IU/L
TERMINAL_BW ([…], time 7 day): 279 g
TERMINAL_BW ([…], time 14 day): 323.8 g
TERMINAL_BW ([…], time 28 day): 389.8 g
APTT ([…], time 7 day): 18.7 s
Bas ([…], time 7 day): 1%
Eos ([…], time 7 day): 1%
Fbg ([…], time 7 day): 236 mg/dL
Hb ([…], time 7 day): 13.9 g/dL
Ht ([…], time 7 day): 41%
Lym ([…], time 7 day): 79.6%
MCH ([…], time 7 day): 20.8 pg
MCHC ([…], time 7 day): 33.8%
MCV ([…], time 7 day): 61.4 fL
Mono ([…], time 7 day): 2.8%
Neu ([…], time 7 day): 15.6%
PT ([…], time 7 day): 11.7 s
Plat ([…], time 7 day): 121.9 x10_4/uL
RBC ([…], time 7 day): 669.2 x10_4/ul
Ret ([…], time 7 day): 5.2%
WBC ([…], time 7 day): 118.9 x10_2/uL
APTT ([…], time 14 day): 19.6 s
Bas ([…], time 14 day): 1%
Eos ([…], time 14 day): 0.8%
Fbg ([…], time 14 day): 220.4 mg/dL
Hb ([…], time 14 day): 14.7 g/dL
Ht ([…], time 14 day): 43.1%
Lym ([…], time 14 day): 84.2%
MCH ([…], time 14 day): 20.1 pg
MCHC ([…], time 14 day): 34.1%
MCV ([…], time 14 day): 59.1 fL
Mono ([…], time 14 day): 2.2%
Neu ([…], time 14 day): 12.2%
PT ([…], time 14 day): 11.5 s
Plat ([…], time 14 day): 109.6 x10_4/uL
RBC ([…], time 14 day): 729.8 x10_4/ul
Ret ([…], time 14 day): 4%
WBC ([…], time 14 day): 106.5 x10_2/uL
APTT ([…], time 28 day): 20 s
Bas ([…], time 28 day): 1%
Eos ([…], time 28 day): 1.2%
Fbg ([…], time 28 day): 230.6 mg/dL
Hb ([…], time 28 day): 15.5 g/dL
Ht ([…], time 28 day): 43.8%
Lym ([…], time 28 day): 80%
MCH ([…], time 28 day): 20.4 pg
MCHC ([…], time 28 day): 35.4%
MCV ([…], time 28 day): 57.8 fL
Mono ([…], time 28 day): 2.4%
Neu ([…], time 28 day): 15.8%
PT ([…], time 28 day): 12 s
Plat ([…], time 28 day): 116.1 x10_4/uL
RBC ([…], time 28 day): 757.6 x10_4/ul
Ret ([…], time 28 day): 2.5%
WBC ([…], time 28 day): 135.2 x10_2/uL
KIDNEY_L ([…], time 7 day): 1.2 g
KIDNEY_R ([…], time 7 day): 1.2 g
KIDNEY_TOTAL ([…], time 7 day): 2.5 g
KIDNEY_L ([…], time 14 day): 1.2 g
KIDNEY_R ([…], time 14 day): 1.2 g
KIDNEY_TOTAL ([…], time 14 day): 2.5 g
KIDNEY_L ([…], time 28 day): 1.4 g
KIDNEY_R ([…], time 28 day): 1.4 g
KIDNEY_TOTAL ([…], time 28 day): 2.8 g
LIVER ([…], time 7 day): 13.3 g
LIVER ([…], time 14 day): 13.3 g
LIVER ([…], time 28 day): 15.6 g
A/G ([…], time 7 day): 1.5
ALP ([…], time 7 day): 874.6 IU/L
ALT ([…], time 7 day): 33.6 IU/L
AST ([…], time 7 day): 68.2 IU/L
BUN ([…], time 7 day): 15.4 mg/dL
CRE ([…], time 7 day): 0.4 mg/dL
Ca ([…], time 7 day): 10.7 mg/dL
Cl ([…], time 7 day): 102.8 meq/L
DBIL ([…], time 7 day): 0.094 mg/dL
GLC ([…], time 7 day): 201.8 mg/dL
IP ([…], time 7 day): 7.8 mg/dL
K ([…], time 7 day): 4.5 meq/L
LDH ([…], time 7 day): 212.4 IU/L
Na ([…], time 7 day): 141.8 meq/L
PL ([…], time 7 day): 140.2 mg/dL
RALB ([…], time 7 day): 3.5 g/dL
TBIL ([…], time 7 day): 0.1 mg/dL
TC ([…], time 7 day): 69.4 mg/dL
TG ([…], time 7 day): 95.8 mg/dL
TP ([…], time 7 day): 5.8 g/dL
gamma-GTP ([…], time 7 day): 0.8 IU/L
A/G ([…], time 14 day): 1.4
ALP ([…], time 14 day): 734.4 IU/L
ALT ([…], time 14 day): 34.8 IU/L
AST ([…], time 14 day): 67.2 IU/L
BUN ([…], time 14 day): 16 mg/dL
CRE ([…], time 14 day): 0.4 mg/dL
Ca ([…], time 14 day): 10.6 mg/dL
Cl ([…], time 14 day): 105 meq/L
DBIL ([…], time 14 day): 0.1 mg/dL
GLC ([…], time 14 day): 208.4 mg/dL
IP ([…], time 14 day): 7.2 mg/dL
K ([…], time 14 day): 3.7 meq/L
LDH ([…], time 14 day): 188.8 IU/L
Na ([…], time 14 day): 142.8 meq/L
PL ([…], time 14 day): 132.8 mg/dL
RALB ([…], time 14 day): 3.4 g/dL
TBIL ([…], time 14 day): 0.2 mg/dL
TC ([…], time 14 day): 63.6 mg/dL
TG ([…], time 14 day): 108 mg/dL
TP ([…], time 14 day): 5.8 g/dL
gamma-GTP ([…], time 14 day): 1 IU/L
A/G ([…], time 28 day): 1.3
ALP ([…], time 28 day): 719.6 IU/L
ALT ([…], time 28 day): 33.8 IU/L
AST ([…], time 28 day): 65.8 IU/L
BUN ([…], time 28 day): 17.6 mg/dL
CRE ([…], time 28 day): 0.5 mg/dL
Ca ([…], time 28 day): 10.5 mg/dL
Cl ([…], time 28 day): 104.4 meq/L
DBIL ([…], time 28 day): 0.092 mg/dL
GLC ([…], time 28 day): 226.4 mg/dL
IP ([…], time 28 day): 6.9 mg/dL
K ([…], time 28 day): 4 meq/L
LDH ([…], time 28 day): 224.4 IU/L
Na ([…], time 28 day): 141.8 meq/L
PL ([…], time 28 day): 129.2 mg/dL
RALB ([…], time 28 day): 3.5 g/dL
TBIL ([…], time 28 day): 0.2 mg/dL
TC ([…], time 28 day): 62.6 mg/dL
TG ([…], time 28 day): 110.2 mg/dL
TP ([…], time 28 day): 6 g/dL
gamma-GTP ([…], time 28 day): 1.4 IU/L
